Results reported in paper PMC9497135, “Structure-Based Study to Overcome Cross-Reactivity of Novel Androgen Receptor Inhibitors” (Cells, 2022).

Legend:
[1] = biological target: T1, AR (LNCaP cells, which carry the T878A AR mutation) (Homo sapiens, UniProt P10275, T878A); assay: eGFP cellular AR transcription assay in LNCaP cells (LN-ARR2PB-eGFP); format: cell-based; conditions: eGFP-expressing LNCaP cells, no R1881
T1 construct: LNCaP cells, which carry the T878A AR mutation; endogenous in cells; host or cells: LNCaP (LN-ARR2PB-eGFP)
T1 sequence (P10275 1-920 T878A): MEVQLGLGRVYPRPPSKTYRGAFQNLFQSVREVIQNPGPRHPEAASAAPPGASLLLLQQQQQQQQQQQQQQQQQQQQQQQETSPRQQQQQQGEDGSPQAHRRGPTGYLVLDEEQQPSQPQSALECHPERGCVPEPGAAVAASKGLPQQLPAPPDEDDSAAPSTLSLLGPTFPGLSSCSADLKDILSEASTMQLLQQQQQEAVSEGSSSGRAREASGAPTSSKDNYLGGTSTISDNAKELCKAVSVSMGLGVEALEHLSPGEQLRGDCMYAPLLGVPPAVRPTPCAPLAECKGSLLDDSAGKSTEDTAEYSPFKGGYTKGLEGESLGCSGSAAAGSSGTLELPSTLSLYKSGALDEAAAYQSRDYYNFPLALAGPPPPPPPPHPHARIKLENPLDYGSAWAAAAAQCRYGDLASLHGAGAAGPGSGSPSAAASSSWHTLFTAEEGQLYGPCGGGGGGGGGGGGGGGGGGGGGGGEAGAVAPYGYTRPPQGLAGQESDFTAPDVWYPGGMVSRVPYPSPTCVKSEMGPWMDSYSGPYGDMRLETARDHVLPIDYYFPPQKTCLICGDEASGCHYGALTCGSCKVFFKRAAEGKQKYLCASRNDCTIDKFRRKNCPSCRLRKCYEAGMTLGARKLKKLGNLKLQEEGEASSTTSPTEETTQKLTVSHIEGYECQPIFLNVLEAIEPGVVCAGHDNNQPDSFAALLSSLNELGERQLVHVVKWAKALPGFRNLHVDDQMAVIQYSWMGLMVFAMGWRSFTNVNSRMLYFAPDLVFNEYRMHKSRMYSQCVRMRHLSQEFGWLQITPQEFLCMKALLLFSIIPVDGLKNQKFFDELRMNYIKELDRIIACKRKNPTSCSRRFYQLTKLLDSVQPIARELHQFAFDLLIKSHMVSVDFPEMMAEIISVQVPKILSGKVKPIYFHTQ

T878A AR LBD = biological target: T2, T878A AR LBD (Homo sapiens, UniProt P10275, T878A); assay: Biolayer interferometry (BLI), T878A LBD; format: binding
T2 construct: made in house; host or cells: E. coli BL21-DE3 co-transformed with pBirACm
T2 sequence (P10275 669-900 T878A limits assumed): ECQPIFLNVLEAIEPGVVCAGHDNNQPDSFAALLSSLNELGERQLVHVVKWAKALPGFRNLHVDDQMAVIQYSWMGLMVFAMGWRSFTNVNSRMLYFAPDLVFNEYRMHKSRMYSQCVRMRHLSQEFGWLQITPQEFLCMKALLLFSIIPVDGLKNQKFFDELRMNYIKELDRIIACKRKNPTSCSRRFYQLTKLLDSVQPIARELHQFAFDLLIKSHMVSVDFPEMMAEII
Protocol: The direct reversible interaction between small molecules and the AR was quantified by BLI using OctetRED (ForteBio, Fremont, CA, USA). The wild type and T878A-LDB in fusion with an N-terminal (His)6-avidin ([…]) tag were expressed in E. coli BL21-DE3 cells co-transformed with pBirACm plasmid (Avidity), which expresses a biotin ligase leading to the biotynilation of the avidin tag on the LBD. Cells were grown in LB media at 37 °C to an OD600nm = 0.5 and then induced with 0.5 mM isopropyl-β-D-thiogalactoside. A measure of 20 µM of dihydrotestosterone (DHT) and 0.15 mM biotin were added and the cells were incubated at 16 °C for 18 to 20 h. Cells were then resuspended and lysed in buffer containing 500 mM Li2SO4, 50mM HEPES pH7.2, 10% Glycerol, 0.1% Octyl-beta-Glucoside, 20 µM of DHT, 5 mM β-mercaptoethanol, 10 mM imidazole and 0.1 mM phenylmethanesulfonyl fluoride. […] After an overnight dialysis against 150 mM Li2SO4, 50 mM HEPES pH7.2, 10% Glycerol, 0.1% Octyl-beta-Glucoside, 20 µM of DHT and 0.2 mM tris(2-carboxyethyl)phosphine, purified proteins at 50 µg/mL were bound to the super-streptavidin sensors overnight at 4 °C. The assay was performed at 20 °C in the dialysis buffer supplemented with 5% dimethyl sulfoxide (DMSO) which was also used as our reference measurement.

## COc1c(F)cccc1-c1csc(N2CCOCC2)n1 [VPC14368, 4-(4-(3-fluoro-2-methoxyphenyl)thiazol-2-yl)morpholine]
[1]
  AR transcriptional activity in the absence of R1881: enhanced the AR transcriptional activity
T878A AR LBD
  Direct binding to T878A LBD by BLI: confirmed at high concentrations and in a concentration-dependent manner
T878A AR LBD; Figure 2, 50-300 µM tested
  Concentration at which binding is seen (BLI): above 100 µM
